These are literature values, as cited in patent publication US20240408173A1, “SILK FIBROIN-CONTAINING COMPOSITION AND METHODS OF USE THEREOF” (Georgetown University, priority 2017, published 2024).

On to `FC(F)(F)C(F)(F)C(F)(F)C(F)(F)C(F)(F)C(F)(F)C(F)(F)C(F)(F)Br` [PFC, perfluorooctylbromide], for which the Water solubility result is given as “No”.
